Reference: article PMC9643865, “Bromo-protopine, a novel protopine derivative, alleviates tau pathology by activating chaperone-mediated autophagy for Alzheimer’s disease therapy” (Frontiers in Molecular Biosciences, 2022)
Where two headings read alike, the source gives them in different places.

How the values were obtained:
[1] = Pharmacokinetic study in brain and plasma after oral dosing, LC-MS/MS; format: in vivo, ICR mice
Description: To determine the amount of PRO-Br in the brain, a pharmacokinetic study was performed employing 3-month-old female ICR mice (n = 6, 30 ± 2 g). PRO-Br (10 mg/kg b. wt) was injected orally. Brain tissues and blood samples (intracardial) were collected at various time-points (0, 15, 30, 45, 60, 75, 120, 240, 360, 480 min). Brain tissues and plasma samples were kept at −80°C until analysis. On the day of analysing the samples, the brain tissues were thawed on ice and half brain tissue was taken for analysis. To 200 mg of tissue, 4 times the volume of methanol (100%) was added, and homogenized until a clear solution was observed. The samples were centrifuged at 15,000 RPM for 10 min at 4°C. The supernatant was separated and analyzed using LC-MS/MS.
Quantification of PRO-Br in mice brains was performed by Agilent 6410 LC-ESI-Triple-Quad/TOF. The mobile phase (A) consisted of water with 0.1% formic acid, and the mobile phase (B) consisted of acetonitrile with 0.1% formic acid (B). C18 column was used to elute the desired solutes, based on the protocol: 0–5 min, 23–50% B; 5–15 min, 50–60% B; 15–15.01 min, 60–95% B; 15.01–22 min, 95% B. The ions of PRO-Br were detected in positive ionization mode. Multiple reaction monitoring (MRM) mode was used to monitor the analytes of PRO-Br.

[2] = test system: HT22 cells; assay: LAMP2A / HSC70 immunocytochemistry and immunoblotting; format: cell-based, mouse
Description: (§1) SHSY5Y cells stably-expressing mutant tau (SHSYP301L) were cultured in DMEM/F12 + 15% FBS, 3 μg/ml Blasticidin S HCl, and 1X PSN. N2A mouse neuroblastoma and mouse hippocampal neuronal (HT22) cells were cultured in DMEM+10% FBS, and 1X PSN. Sterile complete medium containing PRO-Br was added to the cells, and they were then incubated for 24 h at an optimum temperature of 37°C in a sterile 5% CO2 incubator.
(§2) After PRO-Br treatment, cells were solubilised using cold RIPA lysis buffer (9803, Life Technologies), containing protease and phosphatase inhibitor tablets. Cells were sonicated and centrifuged at 14000 rpm for 15 min. Total protein concentration was determined by BCA protein assay, and the samples were separated on SDS-PAGE and transferred to PVDF membranes. The membranes were blocked, washed, and incubated with primary antibodies (Table 1), and incubated at 4°C, overnight. The membranes were further incubated with the required dilutions of secondary antibody for 1 h, at RT. The chemiluminescent signals were captured using x-ray film in a darkroom, with an appropriate chemiluminescent substrate kit (ThermoFisher Scientific, United States). Films were scanned, and the relative intensities of the signals were analyzed using ImageJ software.
HT22 cells were cultured in sterile 24-well culture dishes containing 14 mm cover-glass. Cells were treated with PRO-Br (12.5 and 25 μM), and DMSO (0.1%), for 24 h. Cells were fixed with paraformaldehyde (4%), permeabilized with triton-X-100 (0.1%), and blocked with BSA (2%). LAMP2A antibody (1:500), and HSC70 antibody (1:500) was added to the processed cells and incubated overnight at four°C. Alexa Fluor® 488 (green) and Alexa Fluor® 594 (red) secondary antibodies (1:400) were added and incubated for 1.5 h at room temperature. FluorSave reagent (Merck Millipore, United States) was added, then cover-slipped, and images were captured by a Leica confocal imaging system.

[3] = test system: N2A cells; assay: LAMP2A / HSC70 expression; format: cell-based, mouse; conditions: compared to Trehalose (positive control)
Description: as §1, §2

[4] = test system: SHSYP301L cells; assay: Immunoblotting of tau, Ac-α-tubulin and chaperones in tau-overexpressing cells; format: cell-based
Description: as §1, §2

[5] = test system: 3xTg-AD mice; assay: Golgi staining of dendritic spines; format: in vivo; conditions: oral, 8 months
Description: Female homozygous 3xTg-AD mice carrying transgenes for APP (Swedish KM670/671Nl), MAPT (tauP301L) and Psen1 (M146V) were procured from Jackson’s Laboratory (# 004807). The transgenic mice colonies were bred and maintained in the HKBU animal house at 23 ± 2 °C, 60 ± 15% relative humidity with regular access to food and water. Seven-month-old 3xTg-AD mice were randomly segregated into three treatment groups: Tg-Vehicle, 1 mg/kg, and 2.5 mg/kg PRO-Br. PRO-Br was administered orally for 8 months (n = 8). The bodyweight of mice from all the groups was recorded once every week.
FD Rapid Golgi Stain Kit was employed to determine the dendritic spine density in the 3xTg-AD mice brains and was performed according to procedure described previously ([Iyaswamy et al., 2022]). Briefly, mice were perfused using 4% PFA, and the brains were dissected carefully to avoid damage. Next, the brain samples were frozen by dipping in isopentane solution (on dry ice). The frozen brains were sectioned at 150 μm thickness using a Shandon Cryotome SME Cryostat (Ramsey, MN, United States). The tissue slices were carefully mounted onto glass slides and stained with the kit reagents in accordance with the manufacturer’s procedure. The dendritic images were acquired by Leica confocal microscope. […]

[6] = test system: P301S mice; assay: Rotarod test; format: in vivo; conditions: oral, 2.5 months, vs Tg-Vehicle
Description: Female homozygous P301S mice bearing the transgene for MAPT (P301S), were generous gifts from Michael Goedert. P301S-tau mice (1.5-month-old, n = 8) were administered with PRO-Br daily for 2.5 months. The mice models employed in the study were maintained under 12 h light-dark cycles and were provided ad libitum access to chow and water.
Motor behavior was assessed by the rotarod test (Harvard apparatus, SeDaCom v2.0.000) and was performed according to the procedure described previously ([Song et al., 2020]). The study mice were brought into the experimental room 30 min before the test. The training was conducted with a constant speed of 4, 8, and 12 rpm on days 1, 2, and 3, respectively. Three trials were conducted each day and the performance was monitored. On the fourth day, an acceleration mode (4–40 rpm in 5 min) was introduced, and the time spent (s) by each mouse on the rod was recorded by the instrument connected to a computer.

CN1CCc2cc3c(cc2C(=O)Cc2c(Br)cc4c(c2C1)OCO4)OCO3 [PRO-Br, bromo-protopine]
time retained in the brain ([1]; 10 mg/kg oral, female ICR mice, brain): 4.2 h
brain penetrating efficacy ([1]; compared to PRO): superior compared to its parent compound
Kp ([1]; mouse, brain, 10 mg/kg oral, female ICR mice, read-out: brain/plasma ratio): 8.08
Cmax ([1]; mouse, 10 mg/kg oral, female ICR mice, brain, read-out: maximum concentration (Cmax) in the brain): 425 ng/g
Tmax ([1]; mouse, 10 mg/kg oral, female ICR mice, brain, read-out: maximum time (Tmax) in the brain (converted)): 30 min
Cmax ([1]; mouse, 10 mg/kg oral, female ICR mice, plasma, read-out: Cmax in the plasma): 91.9 ng/mL
Tmax ([1]; mouse, 10 mg/kg oral, female ICR mice, plasma, read-out: Tmax in the plasma (converted)): 15 min
expression of LAMP2A ([2]; immunocytochemistry, 12.5 and 25 μM, 24 h): distinctly enhanced the expression of LAMP2A in a dose-dependent manner
interaction between HSC70 and LAMP2A ([2]; immunofluorescence): markedly enhanced the interaction between HSC70 and LAMP2A
expression of LAMP2A and HSC70 [3]: increased expression of LAMP2A and HSC70
PHF1 and TAU5 levels ([4]; 24 h): simultaneously reducing PHF1 and TAU5 levels
expression of HSP70 ([4]; 24 h): significantly and dose-dependently augmented the expression of HSP70
acetylation of α-tubulin ([4]; compared to PRO): enhanced the acetylation of α-tubulin
PHF1 degradation on co-treatment with CMA/lysosomal protease inhibitors E64D and pepstatin ([4]; compared to PRO-Br treatment alone): significantly blocked the degradation of PHF1 levels
tau/PHF1-reducing activity ([4]; preliminary screening): good tau/PHF1-reducing activity
PHF1 degradation on co-treatment with MG132, Wortmannin or Chloroquine ([4]; proteasome, autophagy or lysosome inhibitor co-treatment): did not block PRO-Br-mediated PHF1 degradation
dendritic spine structures (thin, stubby and mushroom-like) in the hippocampus [5]: significantly enhanced the dendritic spine structures
latency of falling (rotarod) [6]: latency of falling was significantly enhanced
